Here are results for 53 compounds from ChEMBL document CHEMBL1153699, “Discovery and optimization of antibacterial AccC inhibitors” (Bioorg Med Chem Lett, 2009).

≈ marks a conversion by molar mass, not a printed value. A value given as a limit tells only on which side of the number the result lay.

System in one assay: not listed separately
Put plainly: Inhibition of Escherichia coli HS294 ACCase.
Conditions: not given; call rule not given here
One may read the IC50 as the concentration that gives 50% inhibition. Consider `COc1cc(Cc2cnc(N)nc2N)cc(OC)c1OC` [TRIMETHOPRIM], for which the IC50 result is given as “Not Active”.

Staying with this assay, now noted: read-out: IC50.
For `Cc1ccccc1CNc1nc2cc(C(N)=O)ccc2n1CC1CCCCC1`, the 50% inhibitory concentration (IC50) worked out at 28000 nM.

As to `NC(=O)c1ccc2c(c1)nc(NCc1ccccc1Cl)n2CCc1ccccc1`, the IC50 was found to be 8900 nM.

Take `CC(C)CCNS(=O)(=O)c1cc(C(N)=O)cc2nc(NCc3ccccc3Cl)n(C[C@H]3CCCCC[C@H]3O)c12`: the IC50 worked out at 800 nM.

Consider `C[C@H](Nc1nc2cc(C(N)=O)ccc2n1CC1CCCCC1)c1ccccc1`, for which the half-maximal inhibitory concentration (IC50) was 41000 nM.

As to `NC(=O)c1ccc2c(c1)nc(NCc1ccc(Cl)cc1)n2CC1CCCCC1`, the half-inhibitory concentration (IC50) came to 63000 nM.

Regarding `NC(=O)c1ccc2c(n1)nc(NCc1ccccc1Cl)n2CC1COc2ccccc2O1` (centres undefined), the IC50 came out at 300 nM.

Take `NC(=O)c1ccc2c(n1)nc(NCc1ccccc1Cl)n2Cc1ccccc1`: the IC50 came to 170 nM.

Turning to `NC(=O)c1cc(S(=O)(=O)NCc2ccc(Cl)cc2)c2c(c1)nc(NCc1ccccc1Cl)n2C[C@H]1CCCCC[C@H]1O`, the IC50 stood at 2100 nM.

Turning to `C[S+]([O-])c1cc(C(N)=O)cc2nc(NCc3ccccc3Cl)n(C[C@H]3CCCCC[C@H]3O)c12` (some centres undefined), the IC50 was determined as 260 nM.

`NC(=O)c1ccc2c(c1)nc(NCc1ccccc1Br)n2CC1CCCCC1`: the IC50 was found to be 143000 nM.

Turning to `NC(=O)c1ccc2c(c1)nc(NCc1ccccc1Cl)n2[C@@H]1CCc2ccccc21`, the half-maximal inhibitory concentration (IC50) turned out to be 700 nM.

On to `CC(C)(CO)Cn1c(NCc2ccccc2Cl)nc2nc(C(N)=O)ccc21`, for which the IC50 worked out at 20 nM.

Take `Cn1c(NCc2ccccc2Cl)nc2cc(C(N)=O)cc(N)c21`: the half-maximal inhibitory concentration (IC50) worked out at 50000 nM.

On to `NC(=O)c1cc([N+](=O)[O-])c2c(c1)nc(NCc1ccccc1Cl)n2[C@H]1CCc2ccccc21`, for which the IC50 was 90 nM.

For the compound `NC(=O)c1ccc2c(c1)nc(NCc1ccccc1C(F)(F)F)n2CC1CCCCC1`, the IC50 was found to be 144000 nM.

Turning to `NC(=O)c1cc([N+](=O)[O-])c2c(c1)nc(NCc1ccccc1Cl)n2C[C@H]1CCCCC[C@H]1O`, the 50% inhibitory concentration (IC50) worked out at 10 nM.

Regarding `NC(=O)c1ccc2c(c1)nc(NCc1ccccc1Cl)n2CC[C@H](O)CO`, the half-maximal inhibitory concentration (IC50) came out at 400 nM.

As to `COc1ccccc1Cn1c(NCc2ccccc2Cl)nc2nc(C(N)=O)ccc21`, the IC50 came out at 2840 nM.

On to `NC(=O)c1ccc2c(n1)nc(NCc1ccccc1Cl)n2CCCO`, for which the concentration for half-maximal inhibition (IC50) came to 190 nM.

As for `NC(=O)c1ccc2c(c1)nc(NCc1ccccc1Cl)n2[C@H]1CCc2ccccc21`, the IC50 stood at 14700 nM.

Take `CNS(=O)(=O)c1cc(C(N)=O)cc2nc(NCc3ccccc3Cl)n(C[C@H]3CCCCC[C@H]3O)c12`: the concentration for half-maximal inhibition (IC50) stood at 380 nM.

On to `COc1ccccc1CNc1nc2cc(C(N)=O)ccc2n1CC1CCCCC1`, for which the half-inhibitory concentration (IC50) is 139000 nM.

For `Cn1c(NCc2ccccc2Cl)nc2cc(C(N)=O)cc([N+](=O)[O-])c21`, the IC50 stood at 3500 nM.

Regarding `NC(=O)c1ccc2c(c1)nc(NCc1c(Cl)cccc1Cl)n2CC1CCCCC1`, the IC50 came out at 241000 nM.

With `NC(=O)c1ccc2c(c1)nc(NCc1cccc3ccccc13)n2CC1CCCCC1`, the IC50 amounted to 171000 nM.

For `CNC(=O)c1ccc2c(c1)nc(NCc1ccccc1Cl)n2CC1CCCCC1`, the IC50 is over 20000 nM.

In the case of `CC(C)(CO)Cn1c(NCc2ccccc2Cl)nc2cc(C(N)=O)ccc21`, the IC50 is 700 nM.

For the compound `NC(=O)c1ccc2c(c1)nc(NCc1ccccc1F)n2CC1CCCCC1`, the IC50 was determined as 16900 nM.

As to `NC(=O)c1ccc2c(n1)nc(NCc1ccccc1Cl)n2[C@@H]1CCc2ccccc21`, the IC50 is 20 nM.

`NC(=O)c1ccc2c(c1)nc(NCc1ccccc1Cl)n2CC1CCCCC1`: the concentration for half-maximal inhibition (IC50) was found to be 5000 nM.

In the case of `NC(=O)c1ccc2c(c1)nc(NCc1ccccc1Cl)n2CCc1c[nH]c2ccccc12`, the concentration for half-maximal inhibition (IC50) amounted to 9500 nM.

Regarding `CS(=O)(=O)c1cc(C(N)=O)cc2nc(NCc3ccccc3Cl)n(C[C@H]3CCCCC[C@H]3O)c12`, the IC50 was found to be 60 nM.

Turning to `NC(=O)c1ccc2c(n1)nc(NCc1ccccc1Cl)n2Cc1cccc(OC(F)(F)F)c1`, the IC50 amounted to 40000 nM.

As for `NC(=O)c1cc(Br)c2c(c1)nc(NCc1ccccc1Cl)n2C[C@H]1CCCCC[C@H]1O`, the IC50 was 130 nM.

Regarding `CC1CCCCC1n1c(NCc2ccccc2Cl)nc2cc(C(N)=O)ccc21` (centres undefined), the half-maximal inhibitory concentration (IC50) was 2100 nM.

Consider `C[C@@H](c1ccccc1)n1c(NCc2ccccc2Cl)nc2nc(C(N)=O)ccc21`, for which the 50% inhibitory concentration (IC50) was 2060 nM.

On to `NC(=O)c1cc(N)c2c(c1)nc(NCc1ccccc1Cl)n2C[C@H]1CCCCC[C@H]1O`, for which the IC50 was 5000 nM.

With `NC(=O)c1ccc2c(c1)nc(NCc1ccccc1Cl)n2C[C@H]1CCCCC[C@H]1O`, the IC50 was 500 nM.

Turning to `NC(=O)c1cc(S(N)(=O)=O)c2c(c1)nc(NCc1ccccc1Cl)n2C[C@H]1CCCCC[C@H]1O`, the IC50 came out at 700 nM.

For `NC(=O)c1ccc2c(c1)nc(NCc1ccccc1)n2CC1CCCCC1`, the IC50 was 15800 nM.

Regarding `NC(=O)c1ccc2c(n1)nc(NCc1ccccc1Cl)n2C1CCCCC1`, the concentration for half-maximal inhibition (IC50) came to 130 nM.

As to `NC(=O)c1ccc2c(c1)nc(NCc1ccccc1Cl)n2[C@H]1CCCc2ccccc21`, the IC50 was 1300 nM.

Regarding `NC(=O)c1ccc2c(c1)nc(NCc1ccccc1Cl)n2CCCO`, the IC50 came out at 2000 nM.

On to `NC(=O)c1ccc2c(n1)nc(NCc1ccccc1Cl)n2CC(O)COc1ccccc1` (centres undefined), for which the half-inhibitory concentration (IC50) amounted to 3010 nM.

As to `NC(=O)c1ccc2c(n1)nc(NCc1ccccc1Cl)n2CC1CCCCC1`, the IC50 amounted to 160 nM.

As to `NC(=O)c1cc(Cl)c2c(c1)nc(NCc1ccccc1Cl)n2CC1CCCCC1`, the IC50 was 1600 nM.

As for `NC(=O)c1ccc2c(c1)nc(NCc1cccc(Cl)c1)n2CC1CCCCC1`, the half-inhibitory concentration (IC50) worked out at 40000 nM.

`NC(=O)c1ccc2c(n1)nc(NCc1ccccc1Cl)n2Cc1ccc2c(c1)OCCO2`: the IC50 came to 2750 nM.

Take `C[C@H](O)Cn1c(NCc2ccccc2Cl)nc2nc(C(N)=O)ccc21`: the half-maximal inhibitory concentration (IC50) was 270 nM.

Consider `CSc1cc(C(N)=O)cc2nc(NCc3ccccc3Cl)n(C[C@H]3CCCCC[C@H]3O)c12`, for which the IC50 came out at 170 nM.

Turning to `CC(C)(C)OCCCn1c(NCc2ccccc2Cl)nc2nc(C(N)=O)ccc21`, the half-inhibitory concentration (IC50) amounted to 350 nM.

With `CC(C)S(=O)(=O)c1cc(C(N)=O)cc2nc(NCc3ccccc3Cl)n(C[C@H]3CCCCC[C@H]3O)c12`, the concentration for half-maximal inhibition (IC50) was 100 nM.

The next assay relates to Escherichia coli. The assay can be described thus: Antimicrobial activity against Escherichia coli HS294. It counts as functional.
Conditions: not given
What is called MIC is the least concentration at which growth counts as inhibited. Read a high MIC as a need for much substance. On to `C[S+]([O-])c1cc(C(N)=O)cc2nc(NCc3ccccc3Cl)n(C[C@H]3CCCCC[C@H]3O)c12` (some centres undefined), for which the MIC worked out at 12.5 µg/mL (≈ 25.6 µM).

`CC(C)(CO)Cn1c(NCc2ccccc2Cl)nc2nc(C(N)=O)ccc21`: inhibition of growth (MIC) required 1.6 µg/mL (≈ 4.13 µM). Against the preceding compound, the MIC is about 7.8-fold lower.

The compound `NC(=O)c1cc([N+](=O)[O-])c2c(c1)nc(NCc1ccccc1Cl)n2C[C@H]1CCCCC[C@H]1O` yielded an MIC of 0.2 µg/mL (≈ 0.424 µM). This MIC is about 8-fold lower than that of the compound before.

For the compound `NC(=O)c1ccc2c(n1)nc(NCc1ccccc1Cl)n2[C@@H]1CCc2ccccc21`, the minimum inhibitory concentration (MIC) was found to be 0.8 µg/mL (≈ 1.91 µM).

Compound `CS(=O)(=O)c1cc(C(N)=O)cc2nc(NCc3ccccc3Cl)n(C[C@H]3CCCCC[C@H]3O)c12` yielded an MIC of 1.6 µg/mL (≈ 3.17 µM). Against the preceding compound, the MIC is about 2-fold higher.

`NC(=O)c1cc(Br)c2c(c1)nc(NCc1ccccc1Cl)n2C[C@H]1CCCCC[C@H]1O` came in with a minimal inhibitory concentration (MIC) of 0.4 µg/mL (≈ 0.791 µM).
